Holding throughout (type): cell-based
One experiment relates to E. faecalis ATCC 29212. The experiment in a line: MIC determination in BHI media, OD600. To be noted: BHI + 0.1% casamino acids, 18 hours at 37° C., ≧90% OD600 inhibition. The gist of the method: (§1)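 MIC was judged per concentration from endpoint plate readings after an 18-hour incubation at 37° C, using log-phase inoculum at about 5×10^5 CFU/ml and test agents serially diluted in DMSO.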

A further experiment deals with S. Aureus ATCC 33591. As to the kind of experiment: MIC determination in BHI media, OD600. To be noted: BHI + 0.1% casamino acids, 18 hours at 37° C., ≧90% OD600 inhibition. The gist of the method:
as §1

The next experiment concerns E. faecium ATCC 49624. As to the kind of experiment: MIC determination in BHI media, OD600. To be noted: BHI + 0.1% casamino acids, 18 hours at 37° C., ≧90% OD600 inhibition. The gist of the method:
as §1

In the next experiment the test system is S aureus ATCC 29213. The experiment in a line: MIC determination in BHI media, OD600. As to conditions: BHI + 0.1% casamino acids, 18 hours at 37° C., ≧90% OD600 inhibition. The gist of the method: as §1
The subject of another experiment is E. faecalis (CL 4877). The experiment in a line: Zone of inhibition screen, 96 well agar array format. Further details: scale not given here. As to conditions: zone of inhibition relative to 1 mg/ml stock solution of p-chlorobiphenylvancomycin. The gist of the method:
(§2)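 Antibacterial testing on a 96-well agar array; each compound screened separately.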

In the next experiment the test system is S. aureus (ATCC 29213). Described as above. As to conditions: zone of inhibition relative to 1 mg/ml stock solution of p-chlorobiphenylvancomycin. Further details: scale not given here. The gist of the method: as §2

SMILES strings stand for the structures.

Consider `CNC(CC(C)C)C(=O)NC1C(=O)NC(CC(N)=O)C(=O)NC2C(=O)NC3C(=O)NC(C(=O)NC(C(=O)O)c4cc(O)cc(O)c4-c4cc3ccc4O)C(O)c3ccc(c(Cl)c3)Oc3cc2cc(c3OC2OC(CN)C(O)C(O)C2OC2CC(C)(NCc3ccc(-c4ccc(Cl)cc4)cc3)C(O)C(C)O2)Oc2ccc(cc2Cl)C1O` (centres unmarked) [Compound 523], for which, in the experiment with E. faecalis ATCC 29212, the MIC E. faecalis ATCC 29212 was 0.25 µg/mL. For the same compound, the MIC S. aureus ATCC 33591 with S. Aureus ATCC 33591 amounted to 0.39 µg/mL. The MIC E. faecium ATCC 49624 with E. faecium ATCC 49624 came out at 0.12 µg/mL. Further, in the experiment with S aureus ATCC 29213, the MIC S. aureus ATCC 29213 was found to be 0.78 µg/mL.

For `CNC(CC(C)C)C(=O)NC1C(=O)NC(CC(N)=O)C(=O)NC2C(=O)NC3C(=O)NC(C(=O)NC(C(=O)O)c4cc(O)cc(O)c4-c4cc3ccc4O)C(O)c3ccc(c(Cl)c3)Oc3cc2cc(c3OC2OC(CO)C(O)C(O)C2OC2CC(C)(NCc3ccc(-c4ccc(Cl)cc4)cc3)C(O)C(C)O2)Oc2ccc(cc2Cl)C1O` (centres unmarked) [Compound 517, Cl-Biphenyl Vancomycin, reference compound], the MIC E. faecalis ATCC 29212 in the experiment on E. faecalis ATCC 29212 was 0.25 µg/mL. Also, the MIC S. aureus ATCC 33591 in the experiment on S. Aureus ATCC 33591 came out at 0.25 µg/mL. Besides, the MIC E. faecium ATCC 49624 with E. faecium ATCC 49624 came to 0.062 µg/mL. The MIC S. aureus ATCC 29213 in the experiment on S aureus ATCC 29213 was 0.25 µg/mL.

For the compound `CC(C)CC(N)C(=O)NC1C(=O)NC(CC(N)=O)C(=O)NC2C(=O)NC3C(=O)NC(C(=O)NC(C(=O)O)c4cc(O)cc(O)c4-c4cc3ccc4O)C(O)c3ccc(c(Cl)c3)Oc3cc2cc(c3OC2OC(CO)C(O)C(O)C2OC2CC(C)(NCc3ccc(-c4ccc(Cl)cc4)cc3)C(O)C(C)O2)Oc2ccc(cc2Cl)C1O` (centres unmarked) [Compound 336], the MIC E. faecalis ATCC 29212 with E. faecalis ATCC 29212 came out at 0.25 µg/mL. Moreover, the MIC S. aureus ATCC 33591 in the experiment on S. Aureus ATCC 33591 is 0.25 µg/mL. Also, the MIC E. faecium ATCC 49624 with E. faecium ATCC 49624 was determined as 0.12 µg/mL. The MIC S. aureus ATCC 29213 with S aureus ATCC 29213 was determined as 0.25 µg/mL.

As to `CNC(CC(C)C)C(=O)NC1C(=O)NC(CC(N)=O)C(=O)NC2C(=O)NC3C(=O)NC(C(=O)NC(C(=O)O)c4cc(O)cc(O)c4-c4cc3ccc4O)C(O)c3ccc(c(Cl)c3)Oc3cc2cc(c3OC2OC(CO)C(O)C(O)C2OC2CC(C)(NCc3ccc(-c4ccc(Cl)cc4)cc3)C(O)C(C)O2)Oc2ccc(cc2Cl)C1O` (centres unmarked) [Compound 329], the MIC E. faecalis ATCC 29212 with E. faecalis ATCC 29212 was determined as 0.12 µg/mL. Further, in the experiment on S. Aureus ATCC 33591, the MIC S. aureus ATCC 33591 turned out to be 0.12 µg/mL. The MIC E. faecium ATCC 49624 with E. faecium ATCC 49624 is 0.031 µg/mL. In addition, the MIC S. aureus ATCC 29213 in the experiment on S aureus ATCC 29213 was determined as 0.25 µg/mL.

Consider `CC1OC(OC2C(Oc3c4cc5cc3Oc3ccc(cc3Cl)C(O)C3NC(=O)C(NC(=O)C5NC(=O)C(CC(N)=O)NC(=O)C(NC(=O)C(N)CCCCNC(N)=O)C(O)c5ccc(c(Cl)c5)O4)c4ccc(O)c(c4)-c4c(O)cc(O)cc4C(C(=O)O)NC3=O)OC(CO)C(O)C2O)CC(C)(NCc2ccc(-c3ccc(Cl)cc3)cc2)C1O` (centres unmarked) [Compound 61], for which the MIC E. faecalis ATCC 29212 in the experiment with E. faecalis ATCC 29212 was 0.25 µg/mL. Moreover, in the experiment on S. Aureus ATCC 33591, the MIC S. aureus ATCC 33591 is 0.12 µg/mL. Besides, the MIC E. faecium ATCC 49624 in the experiment with E. faecium ATCC 49624 amounted to 0.12 µg/mL. Also, in the experiment with S aureus ATCC 29213, the MIC S. aureus ATCC 29213 stood at 0.12 µg/mL.

Turning to `CCCC(N)C(=O)NC1C(=O)NC(CC(N)=O)C(=O)NC2C(=O)NC3C(=O)NC(C(=O)NC(C(=O)O)c4cc(O)cc(O)c4-c4cc3ccc4O)C(O)c3ccc(c(Cl)c3)Oc3cc2cc(c3OC2OC(CO)C(O)C(O)C2OC2CC(C)(NCc3ccc(-c4ccc(Cl)cc4)cc3)C(O)C(C)O2)Oc2ccc(cc2Cl)C1O` (centres unmarked) [Compound 337], in the experiment on E. faecalis ATCC 29212, the MIC E. faecalis ATCC 29212 came out at 0.25 µg/mL. For the same compound, the MIC S. aureus ATCC 33591 with S. Aureus ATCC 33591 is 0.12 µg/mL. Moreover, the MIC E. faecium ATCC 49624 in the experiment on E. faecium ATCC 49624 turned out to be 0.062 µg/mL. For the same compound, the MIC S. aureus ATCC 29213 with S aureus ATCC 29213 amounted to 0.12 µg/mL.

Take `CNC(C(=O)NC1C(=O)NC(CC(N)=O)C(=O)NC2C(=O)NC3C(=O)NC(C(=O)NC(C(=O)O)c4cc(O)cc(O)c4-c4cc3ccc4O)C(O)c3ccc(c(Cl)c3)Oc3cc2cc(c3OC2OC(CO)C(O)C(O)C2OC2CC(C)(NCc3ccc(-c4ccc(Cl)cc4)cc3)C(O)C(C)O2)Oc2ccc(cc2Cl)C1O)C(C)C` (centres unmarked) [Compound 328]: the MIC E. faecalis ATCC 29212 with E. faecalis ATCC 29212 amounted to 0.39 µg/mL. For the same compound, the MIC S. aureus ATCC 33591 in the experiment on S. Aureus ATCC 33591 is 0.25 µg/mL. The MIC E. faecium ATCC 49624 in the experiment on E. faecium ATCC 49624 turned out to be 0.12 µg/mL. In addition, the MIC S. aureus ATCC 29213 in the experiment with S aureus ATCC 29213 was found to be 0.25 µg/mL.

As to `C[C@H]1O[C@H](O[C@H]2[C@H](Oc3c4cc5cc3Oc3ccc(cc3Cl)[C@@H](O)[C@@H](NC(=O)[C@@H](N)Cc3ccccc3)C(=O)N[C@@H](CC(N)=O)C(=O)N[C@H]5C(=O)N[C@H]3C(=O)N[C@H](C(=O)N[C@@H](C(=O)O)c5cc(O)cc(O)c5-c5cc3ccc5O)[C@H](O)c3ccc(c(Cl)c3)O4)O[C@H](CO)[C@@H](O)[C@@H]2O)C[C@@](C)(NCc2ccc(-c3ccc(Cl)cc3)cc2)[C@H]1O` [Compound 7], the “zone score, E. faecalis CL 4877” value in the experiment with E. faecalis (CL 4877) was found to be 2. In the experiment with S. aureus (ATCC 29213), the “zone score, S. aureus ATCC 29213” value stood at 2. Further, in the experiment on E. faecalis ATCC 29212, the MIC E. faecalis ATCC 29212 turned out to be 0.78 µg/mL. The MIC S. aureus ATCC 33591 in the experiment with S. Aureus ATCC 33591 came out at 0.39 µg/mL. In the experiment with E. faecium ATCC 49624, the MIC E. faecium ATCC 49624 worked out at 0.12 µg/mL. In the experiment with S aureus ATCC 29213, the MIC S. aureus ATCC 29213 was 0.39 µg/mL.

On to `CC(C)C(N)C(=O)NC1C(=O)NC(CC(N)=O)C(=O)NC2C(=O)NC3C(=O)NC(C(=O)NC(C(=O)O)c4cc(O)cc(O)c4-c4cc3ccc4O)C(O)c3ccc(c(Cl)c3)Oc3cc2cc(c3OC2OC(CO)C(O)C(O)C2OC2CC(C)(NCc3ccc(-c4ccc(Cl)cc4)cc3)C(O)C(C)O2)Oc2ccc(cc2Cl)C1O` (centres unmarked) [Compound 339], for which the MIC E. faecalis ATCC 29212 with E. faecalis ATCC 29212 came out at 0.25 µg/mL. Further, the MIC S. aureus ATCC 33591 in the experiment with S. Aureus ATCC 33591 amounted to 0.25 µg/mL. The MIC E. faecium ATCC 49624 in the experiment with E. faecium ATCC 49624 is 0.12 µg/mL. The MIC S. aureus ATCC 29213 in the experiment on S aureus ATCC 29213 turned out to be 0.25 µg/mL.

(Values after patent publication US6518243B1, “Desleucyl glycopeptide antibiotics and methods of making same” (Trustees of Princeton University, priority 1999, dated 2003).)
